Target: T1, mouse TRPM3a2 (mTRPM3) ion channel (Mus musculus, UniProt J9SQF3)
T1 construct: expressed in transfected cells; host or cells: flip-in HEK293
Assay: TRPM3 ion channel driven Ca2+ uptake, Fluo-4 AM assay (PS-stimulated, overexpressing flip-in HEK293 cells)
Format: cell-based
In short: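 Flip-in HEK293 cells overexpressing mTRPM3α2, loaded with Fluo-4 AM, were added to wells with compound plus 50 μM pregnenolone sulfate in Ca2+-containing Krebs buffer and read immediately (ex 485/em 535 nm). Percent inhibition was scaled between PS-plus-vehicle and positive-control-inhibitor signals.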

[1] = PS (50 μM) stimulated, cpd 001-199
[2] = PS (50 μM) stimulated, cpds. 400-499
[3] = PS (50 μM) stimulated, cpds. 667-751
[4] = PS (50 μM) stimulated Ca2+ influx, HEK293, cpds 300-399
[5] = PS (50 μM) stimulated, cpds. 500-599
[6] = PS (50 μM) stimulated, cpds. 600-666

T1 sequence (J9SQF3 1-1709 isoform J9SQF3-12): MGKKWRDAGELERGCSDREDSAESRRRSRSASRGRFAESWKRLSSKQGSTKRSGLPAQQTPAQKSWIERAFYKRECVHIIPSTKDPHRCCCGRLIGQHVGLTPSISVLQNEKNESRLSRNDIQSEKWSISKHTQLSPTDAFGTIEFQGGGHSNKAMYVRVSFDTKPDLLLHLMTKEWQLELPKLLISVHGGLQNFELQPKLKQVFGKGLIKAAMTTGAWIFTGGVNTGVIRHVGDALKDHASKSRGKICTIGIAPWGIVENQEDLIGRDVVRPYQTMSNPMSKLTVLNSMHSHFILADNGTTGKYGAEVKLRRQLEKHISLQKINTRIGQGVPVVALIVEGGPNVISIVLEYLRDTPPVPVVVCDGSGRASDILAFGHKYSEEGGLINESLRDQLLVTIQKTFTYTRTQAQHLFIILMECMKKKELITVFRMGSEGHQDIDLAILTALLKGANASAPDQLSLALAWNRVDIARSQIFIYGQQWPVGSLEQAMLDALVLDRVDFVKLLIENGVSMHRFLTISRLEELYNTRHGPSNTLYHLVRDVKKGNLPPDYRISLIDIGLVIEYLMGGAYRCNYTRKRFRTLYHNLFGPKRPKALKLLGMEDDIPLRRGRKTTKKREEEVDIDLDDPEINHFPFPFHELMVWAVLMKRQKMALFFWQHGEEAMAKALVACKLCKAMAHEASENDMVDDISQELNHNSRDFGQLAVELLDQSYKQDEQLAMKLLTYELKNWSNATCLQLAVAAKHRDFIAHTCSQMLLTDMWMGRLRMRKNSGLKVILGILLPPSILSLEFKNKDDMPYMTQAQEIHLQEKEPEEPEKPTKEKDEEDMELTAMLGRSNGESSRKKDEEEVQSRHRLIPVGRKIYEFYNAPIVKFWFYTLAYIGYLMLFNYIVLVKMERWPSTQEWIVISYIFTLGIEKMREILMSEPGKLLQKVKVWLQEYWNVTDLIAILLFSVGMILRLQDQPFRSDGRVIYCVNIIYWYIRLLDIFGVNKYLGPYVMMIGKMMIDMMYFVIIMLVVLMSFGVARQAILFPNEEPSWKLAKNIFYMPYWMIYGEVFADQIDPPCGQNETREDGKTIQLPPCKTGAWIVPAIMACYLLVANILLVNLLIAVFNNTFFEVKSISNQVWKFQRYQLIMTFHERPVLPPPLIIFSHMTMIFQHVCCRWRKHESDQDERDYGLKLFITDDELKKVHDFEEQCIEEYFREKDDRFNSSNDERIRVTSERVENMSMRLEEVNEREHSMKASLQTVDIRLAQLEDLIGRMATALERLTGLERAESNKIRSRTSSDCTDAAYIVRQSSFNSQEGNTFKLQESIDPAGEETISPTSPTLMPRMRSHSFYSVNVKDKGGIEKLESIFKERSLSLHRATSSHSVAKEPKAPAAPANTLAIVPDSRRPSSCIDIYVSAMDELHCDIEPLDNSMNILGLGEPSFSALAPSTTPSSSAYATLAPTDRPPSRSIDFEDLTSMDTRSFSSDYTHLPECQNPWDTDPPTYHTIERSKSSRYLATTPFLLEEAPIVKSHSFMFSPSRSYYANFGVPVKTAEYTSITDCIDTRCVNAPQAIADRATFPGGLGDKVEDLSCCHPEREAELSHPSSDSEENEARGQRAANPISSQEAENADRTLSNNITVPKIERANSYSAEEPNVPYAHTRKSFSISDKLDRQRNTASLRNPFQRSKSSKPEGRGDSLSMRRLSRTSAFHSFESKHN

COCCN1CCC(NC(=O)c2c(C)oc3ccc(OCc4scnc4C)cc23)C1=O (single isomer, unassigned) [169 - En 2]
IC50 [1]: ≤ 1000 nM

Cc1oc2ccc(OCc3cccnc3C(F)(F)F)cc2c1C(=O)NC1CN(CCO)CC1(F)F (single isomer, unassigned) [134 - En 1]
IC50 [1]: 1000 to 20000 nM

Cc1ncc(COc2ccc3oc(C)c(C(=O)NC(CO)CN4CCOCC4)c3c2)s1 (single isomer, unassigned) [487 - En 1]
IC50 [2]: 1000 to 20000 nM

Cc1ncsc1COc1ccc2oc(C)c(C(=O)NC3(CO)CCNC3)c2c1 (single isomer, unassigned) [728 - En 1]
IC50 [3]: 1000 to 20000 nM

Cc1ncsc1COc1cc2c(C(=O)NC3CCN(CCO)C3=O)c(C)oc2cc1F (single isomer, unassigned) [360 - En 1]
IC50 [4]: ≤ 1000 nM

Cc1ccncc1COc1ccc2oc(C)c(C(=O)O)c2c1 [cpd 099, 2-methyl-5-((4-methylpyridin-3-yl)methoxy)benzofuran-3-carboxylic acid]
IC50 [1]: 1000 to 20000 nM

Cc1ncsc1COc1ccc2oc(C)c(C(=O)NC3(C)CCN(CCO)C3=O)c2c1 (single isomer, unassigned) [410 - En 1]
IC50 [2]: ≤ 1000 nM

Cc1oc2ccc(OCc3cccnc3C(F)F)cc2c1C(=O)NC1(CO)CCCNC1=O (single isomer, unassigned) [737 - En 1]
IC50 [3]: ≤ 1000 nM

Cc1oc2ccc(OCc3ccc(C(F)(F)F)nc3)cc2c1C(=O)NC1CCNC1=O (stereo not drawn) [cpd 066, 2-methyl-N-(2-oxopyrrolidin-3-yl)-5-((6-(trifluoromethyl)pyridin-3-yl)methoxy)benzofuran-3-carboxamide]
IC50 [1]: 1000 to 20000 nM

Cc1oc2ccc(OCc3c[nH]nc3C(F)(F)F)cc2c1C(=O)NC1(CO)CCCNC1=O (single isomer, unassigned) [731 - En 1]
IC50 [3]: ≤ 1000 nM

COCC(C)(NC(=O)c1c(C)oc2ccc(OCc3scnc3C)cc12)C(N)=O (single isomer, unassigned) [468 - En 1]
IC50 [2]: ≤ 1000 nM

Cc1oc2ccc(OCc3cccnc3Cl)cc2c1C(=O)NC1CCN(C(=O)OC(C)(C)C)CC1(F)F (stereo not drawn) [cpd 092, tert-butyl 4-(5-((2-chloropyridin-3-yl)methoxy)-2-methylbenzofuran-3-carboxamido)-3,3-difluoro-piperidine-1-carboxylate]
IC50 [1]: 1000 to 20000 nM

Cc1ccc(COc2ccc3oc(C)c(C(=O)NC4(C(N)=O)CCOC4)c3c2)cn1 (single isomer, unassigned) [594 - En 1]
IC50 [5]: ≤ 1000 nM

Cc1ncc(COc2ccc3oc(C)c(C(=O)NC4COCC4O)c3c2)s1 (single isomer, unassigned) [386 - En 1]
IC50 [4]: ≤ 1000 nM

Cc1oc2ccc(OCc3ccccn3)cc2c1C(=O)NC(CO)C(N)=O (stereo not drawn) [455 - En 2]
IC50 [2]: ≤ 1000 nM

CNC(=O)C(CO)NC(=O)c1c(C)oc2ccc(OCc3ccccn3)cc12 (single isomer, unassigned) [601 - En 1]
IC50 [6]: ≤ 1000 nM

Cc1ncsc1COc1ccc2oc(C)c(C(=O)NC(CCO)C(N)=O)c2c1 (stereo not drawn) [469 - En 1]
IC50 [2]: ≤ 1000 nM

Cc1oc2ccc(OCc3cccnc3C(F)(F)F)cc2c1C(=O)NCC1(N)COC1 [cpd 189, N-((3-aminooxetan-3-yl)methyl)-2-methyl-5-((2-(trifluoromethyl)pyridin-3-yl)methoxy)-benzofuran-3-carboxamide]
IC50 [1]: 1000 to 20000 nM

Cc1oc2ccc(OCc3ccnn3C)cc2c1C(=O)NC1COCC1O (single isomer, unassigned) [655 - En 2]
IC50 [6]: ≤ 1000 nM

CCOC(=O)c1c(C)oc2ccc(OCC3CCN(C(=O)OC(C)(C)C)C3)cc12 (stereo not drawn) [cpd 079, tert-butyl 3-(((3-(ethoxycarbonyl)-2-methylbenzofuran-5-yl)oxy)methyl)pyrrolidine-1-carboxylate]
IC50 [1]: 1000 to 20000 nM

Cc1oc2ccc(OCc3nccs3)cc2c1C(=O)NC1CCNC1=O (stereo not drawn) [compound 036, 2-methyl-N-(2-oxopyrrolidin-3-yl)-5-(thiazol-2-ylmethoxy)benzofuran-3-carboxamide]
IC50 [1]: ≤ 1000 nM

Cc1ncc(COc2ccc3oc(C)c(C(=O)N[C@@H](CO)C(=O)N4CCC(F)(F)C4)c3c2)s1 [cpd 277, (S)-N-(1-(3,3-difluoropyrrolidin-1-yl)-3-hydroxy-1-oxopropan-2-yl)-2-methyl-5-((2-methylthiazol-5-yl)methoxy)benzofuran-3-carboxamide]
IC50 (PS (50 μM) stimulated Ca2+ influx, HEK293, cpds 200-299): 1000 to 20000 nM

Cc1ncsc1COc1ccc2oc(C)c(C(=O)N(C)C3(C(N)=O)COC3)c2c1 [compound 589, N-(3-carbamoyloxetan-3-yl)-N,2-dimethyl-5-((4-methylthiazol-5-yl)methoxy)benzofuran-3-carboxamide]
IC50 [5]: ≤ 1000 nM

COc1ncccc1COc1ccc2oc(C)c(C(=O)NC3CCN(C(=O)OC(C)(C)C)CC3(F)F)c2c1 (stereo not drawn) [cpd 089, tert-butyl 3,3-difluoro-4-(5-((2-methoxypyridin-3-yl)methoxy)-2-methylbenzofuran-3-carbox-amido)piperidine-1-carboxylate]
IC50 [1]: 1000 to 20000 nM

COc1ncccc1COc1ccc2oc(C)c(C(=O)NC3CCNC3=O)c2c1 (stereo not drawn) [compound 046, 5-((2-methoxypyridin-3-yl)methoxy)-2-methyl-N-(2-oxopyrrolidin-3-yl)benzofuran-3-carboxamide]
IC50 [1]: ≤ 1000 nM

Cc1ncsc1COc1ccc2oc(C)c(C(=O)NC3(CO)CCCNC3=O)c2c1 (single isomer, unassigned) [513 - En 1]
IC50 [5]: ≤ 1000 nM

Cc1oc2ccc(OCc3ccncc3)cc2c1C(=O)N[C@H]1CCNC1 [cpd 021, (S)-2-methyl-5-(pyridin-4-ylmethoxy)-N-(pyrrolidin-3-yl)benzofuran-3-carboxamide]
IC50 [1]: 1000 to 20000 nM

Cc1oc2ccc(OCc3cccnc3O)cc2c1C(=O)NC1(C(N)=O)CC1 [cpd 479, N-(1-carbamoylcyclopropyl)-5-((2-hydroxypyridin-3-yl)methoxy)-2-methylbenzofuran-3-carboxamide]
IC50 [2]: 1000 to 20000 nM

Cc1ccncc1COc1ccc2oc(C)c(C(=O)NC3(CO)CCOCC3)c2c1 [cpd 052, N-(4-(hydroxymethyl)tetrahydro-2H-pyran-4-yl)-2-methyl-5-((4-methylpyridin-3-yl)methoxy)-benzofuran-3-carboxamide]
IC50 [1]: 1000 to 20000 nM

Cc1oc2ccc(OCc3c[nH]nc3C(F)(F)F)cc2c1C(=O)N[C@H](C(N)=O)[C@@H](C)O [cpd 685, N-((2S,3R)-1-amino-3-hydroxy-1-oxobutan-2-yl)-2-methyl-5-((3-(trifluoromethyl)-1H-pyrazol-4-yl)methoxy)benzofuran-3-carboxamide]
IC50 [3]: ≤ 1000 nM

Cc1oc2ccc(OCc3ccc4nccn4c3)cc2c1C(=O)NC1(CO)CCOCC1 [cpd 633, N-(4-(hydroxymethyl)tetrahydro-2H-pyran-4-yl)-5-(imidazo[1,2-a]pyridin-6-ylmethoxy)-2-methylbenzofuran-3-carboxamide]
IC50 [6]: 1000 to 20000 nM

Cc1oc2ccc(OCc3ccnn3CC(F)F)cc2c1C(=O)NC(CO)C(N)=O (single isomer, unassigned) [456 - En 1]
IC50 [2]: ≤ 1000 nM

COc1ncccc1COc1ccc2oc(C)c(C(=O)NC3CCN(CCO)C3=O)c2c1 (single isomer, unassigned) [409 - En 1]
IC50 [2]: ≤ 1000 nM

Cc1oc2ccc(OCc3cnco3)cc2c1C(=O)O [cpd 002, 2-methyl-5-(oxazol-5-ylmethoxy)benzofuran-3-carboxylic acid]
IC50 [1]: ≥ 20000 nM

Cc1ncsc1COc1ccc2oc(C)c(C(=O)NC3(CN)COC3)c2c1 [cpd 507, N-(3-(aminomethyl)oxetan-3-yl)-2-methyl-5-((4-methylthiazol-5-yl)methoxy)benzofuran-3-carboxamide]
IC50 [5]: 1000 to 20000 nM

Cc1oc2ccc(OCc3ccccn3)cc2c1C(=O)NC1CCN(C(=O)OC(C)(C)C)CC1(F)F (stereo not drawn) [cpd 097, tert-butyl 3,3-difluoro-4-(2-methyl-5-(pyridin-2-ylmethoxy)benzofuran-3-carboxamido)piperidine-1-carboxylate]
IC50 [1]: 1000 to 20000 nM

Cc1ncsc1COc1cc(C)c2oc(C)c(C(=O)NC3(CO)CCOCC3)c2c1 [compound 186, N-(4-(hydroxymethyl)tetrahydro-2H-pyran-4-yl)-2,7-dimethyl-5-((4-methylthiazol-5-yl)methoxy)benzofuran-3-carboxamide]
IC50 [1]: 1000 to 20000 nM

Cc1oc2ccc(OCc3ccc(F)cn3)cc2c1C(=O)NC1(CO)CCNC1=O (single isomer, unassigned) [735 - En 1]
IC50 [3]: ≤ 1000 nM

Cc1ncsc1COc1ccc2oc(C)c(C(=O)NC3CCN(CCOCCO)C3=O)c2c1 (stereo not drawn) [402 - En 1]
IC50 [2]: 1000 to 20000 nM

Cc1oc2ccc(OCc3nccn3CC(F)F)cc2c1C(=O)NC1(CO)CCOCC1 [cpd 331, 5-((1-(2,2-difluoroethyl)-1H-imidazol-2-yl)methoxy)-N-(4-(hydroxymethyl)tetrahydro-2H-pyran-4-yl)-2-methylbenzofuran-3-carboxamide]
IC50 [4]: 1000 to 20000 nM

Cc1ncsc1COc1ccc2oc(C)c(C(=O)NC(C)C(=O)NCCO)c2c1 (single isomer, unassigned) [397 - En 1]
IC50 [4]: ≤ 1000 nM

Cc1ncc(COc2ccc3oc(C)c(C(=O)N[C@@H](CO)C(=O)N4CCCC4)c3c2)s1 [cpd 307, (S)-N-(3-hydroxy-1-oxo-1-(pyrrolidin-1-yl)propan-2-yl)-2-methyl-5-((2-methylthiazol-5-yl)methoxy)benzofuran-3-carboxamide]
IC50 [4]: 1000 to 20000 nM

Cc1ccc(COc2ccc3oc(C)c(C(=O)NC4(C(N)=O)CCOC4)c3c2)cn1 (single isomer, unassigned) [594 - En 2]
IC50 [5]: ≤ 1000 nM

Cc1oc2ccc(OCc3nccn3C)cc2c1C(=O)NC1(CO)COC1 [cpd 523, N-(3-(hydroxymethyl)oxetan-3-yl)-2-methyl-5-((1-methyl-1H-imidazol-2-yl)methoxy)benzofuran-3-carboxamide]
IC50 [5]: 1000 to 20000 nM

Cc1oc2ccc(OCc3c(F)cnn3C)cc2c1C(=O)NC1(CO)CCNC1=O (single isomer, unassigned) [356 - En 1]
IC50 [4]: ≤ 1000 nM
